{
  "source": "paper PMC6368574",
  "about": "“Probing the Inhibition of Microtubule Affinity Regulating Kinase 4 by N-Substituted Acridones” (Scientific Reports, 2019)",
  "key": {"recombinant MARK4": {"target": "T1, recombinant MARK4 (Homo sapiens, UniProt Q96L34)", "T1 construct": "made in house; host or cells: bacterial cells (Luria-Bertani broth, IPTG induction)", "T1 sequence (Q96L34 1-752)": "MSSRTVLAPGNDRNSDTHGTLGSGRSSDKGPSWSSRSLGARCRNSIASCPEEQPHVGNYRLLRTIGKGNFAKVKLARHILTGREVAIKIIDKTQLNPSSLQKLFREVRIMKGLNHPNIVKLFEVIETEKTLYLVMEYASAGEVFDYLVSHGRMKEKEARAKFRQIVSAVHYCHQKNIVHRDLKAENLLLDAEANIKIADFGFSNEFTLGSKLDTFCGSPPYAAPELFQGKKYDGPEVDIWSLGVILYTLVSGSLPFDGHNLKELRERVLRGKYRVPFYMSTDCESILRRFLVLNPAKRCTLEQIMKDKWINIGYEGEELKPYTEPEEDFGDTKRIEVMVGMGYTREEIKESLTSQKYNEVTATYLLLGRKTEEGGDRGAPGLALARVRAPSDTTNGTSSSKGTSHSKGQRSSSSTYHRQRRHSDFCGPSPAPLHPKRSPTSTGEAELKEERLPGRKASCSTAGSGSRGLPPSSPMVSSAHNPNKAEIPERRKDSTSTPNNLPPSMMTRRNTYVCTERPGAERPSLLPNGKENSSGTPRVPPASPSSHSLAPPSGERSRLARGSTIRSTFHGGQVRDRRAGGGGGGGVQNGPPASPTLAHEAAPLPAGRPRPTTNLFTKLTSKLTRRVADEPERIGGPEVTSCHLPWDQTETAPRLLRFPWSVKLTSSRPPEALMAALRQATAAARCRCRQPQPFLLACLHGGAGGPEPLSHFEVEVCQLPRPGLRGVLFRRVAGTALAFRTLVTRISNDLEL", "assay": "Fluorescence binding (quenching, modified Stern-Volmer)", "protocol": "To determine the binding affinities of the synthesized acridones with MARK4, we used fluorescence emission spectra measurements. Protein sample was excited at 280 nm and emission was measured in 300–400 nm range with increasing concentrations of each acridone derivative (0–100 µM). A significant decrease in fluorescence intensity of MARK4 with increasing concentrations of each compound was fitted in the modified Stern-Volmer equation to calculate the binding constant, Ka and the number of binding sites per protein molecule (n). All the synthesized acridones have been screened (Supplementary Fig. S6, S7 and Table S3) and those with the highest affinity have been selected (compounds 5, 7b, 7d, 7f and 7h) for further evaluation (Fig. 3). The binding constants of compound 5, 7b, 7d, 7f and 7h were estimated as 6.3 × 10^4 M^−1, 1.0 × 10^6 M^−1, 1.0 × 10^6 M^−1, 1.9 × 10^6 M^−1, and 3.1 × 10^5 M^−1, respectively (Fig. 3).\nFigure 3 Fluorescence binding studies of compound 5, 7b, 7d, 7f and 7h with MARK4. (A) Fluorescence emission spectra of MARK4 (10 µM) with increasing concentrations of the respective compound (5, 7b, 7d, 7f and 7h). Excitation wavelength was fixed at 280 nm and emission was recorded in 300–400 nm range. (B) Modified Stern-Volmer plot obtained from fluorescence quenching of MARK4 by compound 5, 7b, 7d, 7f and 7h, respectively. It was used to calculate binding affinity (Ka) and number of binding sites (n).\nBinding affinities of synthesized acridone derivatives with recombinant MARK4 was carried out by observing the fluorescence intensity change of emission spectrum of MARK4 by following our previously published protocol[44],[45]. Each titration of protein was performed in triplicates and the average was taken for analysis. A significant decreased in fluorescence intensity of protein with increase in the concentration of acridone derivatives were used as the criteria for deducing the binding constant (Ka) as well as number of binding sites (n) present on the protein molecule using the modified Stern-Volmer equation[46]:1 log(Fo−F)/F=logKa+nlog[L] where, Fo = Fluorescence intensity of native protein, F = Fluorescence intensity of protein in the presence of ligand, Ka = Binding constant, n = number of binding sites, L = concentration of ligand. The values for Ka and n were derived from the intercept and slope, respectively."}, "MCF-7 cells": {"test_system": "MCF-7 cells", "assay": "MTT cell viability assay, MCF-7", "format": "cell-based", "conditions": "Homo sapiens, MCF7", "protocol": "Initially, all synthesized acridone derivatives were evaluated for their cytotoxicity potential on MCF-7, HepG2 and HEK293 cell lines by MTT assay. These synthesized acridone derivatives were screened in the concentration range of 0–200 µM, for 24 and 48 h. […] It was also interesting that in the studied […] concentration range these compounds don’t show considerable cytotoxicity towards HEK293 cell lines. […] Thus, compounds 5, 7b, 7d, 7f and 7h were taken for further cell based studies such as apoptosis and reactive oxygen species (ROS) production.\nTo study the effect of synthesized acridone derivatives on cell viability and proliferation, a standard MTT method was carried out. Cells were plated (8000–9000/well) in a 96-well plate and incubated overnight. On the next day, cells were treated with increasing concentrations (0.1–80 μM) of synthesized acridone derivatives in a final volume of 200 µl for 48 h at 37 °C in a humidified chamber. At the end of treatment time point, 20 µl of MTT solution (from 5 mg/ml stock solution in phosphate buffer saline, pH 7.4) was added to each well and incubated further for 4–5 h at 37 °C in the CO2 incubator. After stipulated time the supernatant was aspirated and the colored formazan crystal produced as a result of MTT reduction was dissolved in 100 µl of DMSO. The absorbance (A) of colored product was then measured at 570 nm on a multiplate ELISA reader (BioRad). The percentage of viable cells was calculated and used to estimate the IC50 (50% inhibitory concentration) values for each acridone derivative. For cell proliferation studies paclitaxel has been taken as positive control."}, "[1]": {"conditions": "MTT, read-out: IC50 for MCF-7 cells"}, "[2]": {"conditions": "Table S3, fluorescence binding, read-out: Binding affinity (Ka) (converted)"}, "[3]": {"conditions": "Table 1, from MTT, read-out: IC50, (µM), MCF-7"}},
  "note": "Like-named read-outs stand apart in the source and are kept apart here.",
  "data": [
    {"compound": "COC(=O)Cn1c2ccccc2c(=O)c2cc(C)ccc21", "note": "[Compound 5, Methyl 2-(2-methyl-9-oxoacridin-10(9H)-yl)acetate]", "values": [
      {"measurement": "Kd", "setting": "recombinant MARK4; fluorescence quenching, MARK4 10 µM, excitation 280 nm, read-out: binding constant, Ka (converted)", "value": 15.9, "unit": "µM"},
      {"measurement": "IC50", "setting": "MCF-7 cells; [1]", "value": "9.4 ± 1", "unit": "µM"}
    ]},
    {"compound": "Cc1ccc(NC(=O)Cn2c3ccccc3c(=O)c3cc(C)ccc32)cc1", "note": "[Compound 7f, 2-(2-Methyl-9-oxoacridin-10(9H)-yl)-N-(p-tolyl)acetamide]", "values": [
      {"measurement": "Kd", "setting": "recombinant MARK4; [2]", "value": 0.526, "unit": "µM"},
      {"measurement": "IC50", "setting": "MCF-7 cells; [3]", "value": "5.8 ± 1.4", "unit": "µM"}
    ]},
    {"compound": "Cc1ccc2c(c1)c(=O)c1ccccc1n2CC(=O)NCc1ccccc1", "note": "[Compound 7b, N-benzyl-2-(2-methyl-9-oxoacridin-10(9H)-yl)acetamide]", "values": [
      {"measurement": "Kd", "setting": "recombinant MARK4; [2]", "value": 1, "unit": "µM"},
      {"measurement": "IC50", "setting": "MCF-7 cells; [3]", "value": "5.2 ± 1.2", "unit": "µM"}
    ]},
    {"compound": "COc1ccccc1NC(=O)Cn1c2ccccc2c(=O)c2cc(C)ccc21", "note": "[Compound 7h, N-(2-methoxyphenyl)-2-(2-methyl-9-oxoacridin-10(9H)-yl)acetamide]", "values": [
      {"measurement": "Kd", "setting": "recombinant MARK4; [2]", "value": 3.23, "unit": "µM"},
      {"measurement": "IC50", "setting": "MCF-7 cells; [1]", "value": "7.2 ± 1.33", "unit": "µM"}
    ]},
    {"compound": "COc1ccc(CNC(=O)Cn2c3ccccc3c(=O)c3cc(C)ccc32)cc1", "note": "[Compound 7d, N-(4-methoxybenzyl)-2-(2-methyl-9-oxoacridin-10(9H)-yl)acetamide]", "values": [
      {"measurement": "Kd", "setting": "recombinant MARK4; [2]", "value": 1, "unit": "µM"},
      {"measurement": "IC50", "setting": "MCF-7 cells; [3]", "value": "6.3 ± 1.2", "unit": "µM"}
    ]}
  ]
}
